The target in this assay is GST-tagged truncated human mutant G2019S LRRK2 (Homo sapiens (Human), UniProt Q5S007, G2019S). In words: LRRK2 G2019S Km ATP LanthaScreen Assay. Type of assay: biochemical. The conditions noted are these: 134 μM ATP (Km ATP); fluorescein-labeled LRRKtide substrate; mean IC50 values. As to the method: The IC50 values reported herein were measured as follows.
Chain of GST-tagged truncated human mutant G2019S LRRK2 (Q5S007 970-2527 G2019S): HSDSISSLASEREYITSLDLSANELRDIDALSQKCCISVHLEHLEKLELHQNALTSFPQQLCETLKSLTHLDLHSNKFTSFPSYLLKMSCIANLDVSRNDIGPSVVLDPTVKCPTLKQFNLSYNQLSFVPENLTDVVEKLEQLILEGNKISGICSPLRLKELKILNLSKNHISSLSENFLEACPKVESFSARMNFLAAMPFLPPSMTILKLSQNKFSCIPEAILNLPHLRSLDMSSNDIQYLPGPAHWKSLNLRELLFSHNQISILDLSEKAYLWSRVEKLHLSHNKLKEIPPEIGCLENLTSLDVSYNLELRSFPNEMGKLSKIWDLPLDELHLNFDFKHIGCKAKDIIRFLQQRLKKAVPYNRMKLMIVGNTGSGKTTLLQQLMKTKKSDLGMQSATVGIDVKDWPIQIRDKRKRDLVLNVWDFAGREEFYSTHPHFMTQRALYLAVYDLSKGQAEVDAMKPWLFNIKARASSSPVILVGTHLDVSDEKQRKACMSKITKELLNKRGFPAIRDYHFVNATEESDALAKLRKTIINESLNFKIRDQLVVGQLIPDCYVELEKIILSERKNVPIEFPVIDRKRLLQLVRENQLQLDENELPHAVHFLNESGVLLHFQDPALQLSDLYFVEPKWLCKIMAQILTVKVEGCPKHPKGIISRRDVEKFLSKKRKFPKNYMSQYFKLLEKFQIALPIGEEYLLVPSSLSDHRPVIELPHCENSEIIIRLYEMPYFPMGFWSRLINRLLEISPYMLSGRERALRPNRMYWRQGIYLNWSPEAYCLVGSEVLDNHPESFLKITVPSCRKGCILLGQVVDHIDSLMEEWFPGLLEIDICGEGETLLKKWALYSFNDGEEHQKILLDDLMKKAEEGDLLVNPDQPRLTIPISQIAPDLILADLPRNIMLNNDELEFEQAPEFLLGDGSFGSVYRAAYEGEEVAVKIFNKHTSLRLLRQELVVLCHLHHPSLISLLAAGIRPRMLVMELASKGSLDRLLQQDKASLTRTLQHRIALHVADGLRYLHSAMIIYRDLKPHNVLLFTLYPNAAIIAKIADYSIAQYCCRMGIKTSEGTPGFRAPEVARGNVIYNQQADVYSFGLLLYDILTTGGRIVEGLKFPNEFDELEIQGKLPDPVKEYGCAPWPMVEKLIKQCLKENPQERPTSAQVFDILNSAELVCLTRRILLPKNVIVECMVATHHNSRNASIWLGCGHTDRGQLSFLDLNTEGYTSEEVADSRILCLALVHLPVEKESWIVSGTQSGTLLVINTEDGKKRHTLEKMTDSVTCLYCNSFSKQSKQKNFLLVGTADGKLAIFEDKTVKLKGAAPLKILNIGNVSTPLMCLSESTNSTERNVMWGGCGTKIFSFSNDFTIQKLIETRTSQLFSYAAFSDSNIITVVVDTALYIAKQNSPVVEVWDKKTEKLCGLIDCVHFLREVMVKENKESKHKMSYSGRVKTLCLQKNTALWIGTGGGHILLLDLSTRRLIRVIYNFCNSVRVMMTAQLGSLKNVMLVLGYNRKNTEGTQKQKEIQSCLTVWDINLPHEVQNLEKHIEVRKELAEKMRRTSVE
Biological Assay: LRRK2 Km ATP LanthaScreen™ Assay
The data presented for the Km ATP LanthaScreen™ Assay represents mean IC50 values based on several test results and may have reasonable deviations depending on the specific conditions and reagents used. Assays were performed in the presence of 134 μM ATP (Km ATP). Upon completion, the assay was stopped and phosphorylated substrate detected with a terbium (Tb)-labeled anti-pERM antibody (cat. no. PV4898). The compound dose response was prepared by diluting a 10 mM stock of compound to a maximum concentration of […] in 100% dimethylsulfoxide followed by custom fold serial dilution in dimethylsulfoxide nine times. Twenty nanoliters of each dilution was spotted via a Labcyte Echo onto a 384-well black-sided plate (Corning 3575) followed by 15 μl of a 1.25 nM enzyme solution in 1× assay buffer (50 mM Tris pH 8.5, 10 mM MgCl2, 0.01% Brij-35, 1 mM EGTA, 2 mM dithiothreitol, 0.05 mM sodium orthovanadate). Following a 15-minute incubation at room temperature, the kinase reaction was started with the addition of 5 μl of 400 nM fluorescein-labeled LRRKtide peptide substrate and 134 μM ATP solution in 1× assay buffer. The reaction was allowed to progress at ambient temperature for 90 minutes. The reaction was then stopped by the addition of 20 μl of TR-FRET Dilution Buffer (Life Technologies, Carlsbad, Calif.) containing 2 nM Tb-labeled anti-phospho LRRKtide antibody and 10 mM EDTA (Life Technologies, Carlsbad, Calif.). After an incubation of 1 hour at room temperature, the plate was read on an EnVision multimode plate reader (Perkin Elmer, Waltham, Mass.) with an excitation wavelength of 337 nm (Laser) and a reading emission at both 520 and 495 nm. […] Abase uses a 4 parameter (4P) logistic fit based on the Levenberg-Marquardt algorithm.
Take `CC(C)(O)[C@@H]1CCN(c2cc(-n3ncc4ccc(C5(C#N)CC56CC6)cc43)ncn2)C1` (single isomer, unassigned) [Example 1.4-1, (R or S)-1-(1-(6-((R)-3-(2-hydroxypropan-2-yl)pyrrolidin-1-yl)pyrimidin-4-yl)-1H-indazol-6-yl)spiro[2.2]pentane-1-carbonitrile]: the IC50 amounted to 1 nM.
The value for `COCc1nc(N2CC3(C(C)(C)O)CC2C3)cc(-n2ncc3ccc(C4(C#N)CC45CC5)cc32)n1` (single isomer, unassigned) [Example 2.3-1, (R or S)-1-(1-(6-(4-(2-hydroxypropan-2-yl)-2-azabicyclo[2.1.1]hexan-2-yl)-2-(methoxymethyl)pyrimidin-4-yl)-1H-indazol-6-yl)spiro[2.2]pentane-1-carbonitrile] was 1.1 nM; that for `COCc1nc(N2CC3(C(C)(C)O)CC2C3)cc(-n2ncc3ccc(C4(C#N)CC45CC5)cc32)n1` (single isomer, unassigned) [Example 2.3-2, (R or S)-1-(1-(6-(4-(2-hydroxypropan-2-yl)-2-azabicyclo[2.1.1]hexan-2-yl)-2-(methoxymethyl)pyrimidin-4-yl)-1H-indazol-6-yl)spiro[2.2]pentane-1-carbonitrile] was 1.2 nM.
The same measure for `Cc1nc(N2CC3(C(C)(C)O)CC2C3)cc(-n2ncc3ccc(C4(C#N)CC45CC5)cc32)n1` (single isomer, unassigned) [Example 2.4-1, 1-(1-(6-(4-(2-hydroxypropan-2-yl)-2-azabicyclo[2.1.1]hexan-2-yl)-2-methylpyrimidin-4-yl)-1H-indazol-6-yl)spiro[2.2]pentane-1-carbonitrile]: 2.1 nM.
`Cc1nc(N2CC3(C(C)(C)O)CC2C3)cc(-n2ncc3ccc(C4(C#N)CC45CC5)cc32)n1` (single isomer, unassigned) [Example 2.4-2, 1-(1-(6-(4-(2-hydroxypropan-2-yl)-2-azabicyclo[2.1.1]hexan-2-yl)-2-methylpyrimidin-4-yl)-1H-indazol-6-yl)spiro[2.2]pentane-1-carbonitrile]: the IC50 worked out at 0.6 nM. Against the preceding compound, the IC50 is about 3.5-fold lower.
The same measure for `COc1nc(N2CC3(C(C)(C)O)CC2C3)cc(-n2ncc3ccc(C4(C#N)CC45CC5)cc32)n1` (single isomer, unassigned) [Example 2.5-1, 1-(1-(6-(4-(2-hydroxypropan-2-yl)-2-azabicyclo[2.1.1]hexan-2-yl)-2-methoxypyrimidin-4-yl)-1H-indazol-6-yl)spiro[2.2]pentane-1-carbonitrile]: 0.9 nM; for `COc1nc(N2CC3(C(C)(C)O)CC2C3)cc(-n2ncc3ccc(C4(C#N)CC45CC5)cc32)n1` (single isomer, unassigned) [Example 2.5-2, 1-(1-(6-(4-(2-hydroxypropan-2-yl)-2-azabicyclo[2.1.1]hexan-2-yl)-2-methoxypyrimidin-4-yl)-1H-indazol-6-yl)spiro[2.2]pentane-1-carbonitrile]: 0.8 nM.
Compound `CNc1nc(N2CC3(C(C)(C)O)CC2C3)cc(-n2ncc3ccc(C4(C#N)CC45CC5)cc32)n1` (single isomer, unassigned) [Example 2.7-1, 1-(1-(6-(4-(2-hydroxypropan-2-yl)-2-azabicyclo[2.1.1]hexan-2-yl)-2-(methylamino)pyrimidin-4-yl)-1H-indazol-6-yl)spiro[2.2]pentane-1-carbonitrile] yielded an IC50 of 3 nM.
Consider `CNc1nc(N2CC3(C(C)(C)O)CC2C3)cc(-n2ncc3ccc(C4(C#N)CC45CC5)cc32)n1` (single isomer, unassigned) [Example 2.7-2, 1-(1-(6-(4-(2-hydroxypropan-2-yl)-2-azabicyclo[2.1.1]hexan-2-yl)-2-(methylamino)pyrimidin-4-yl)-1H-indazol-6-yl)spiro[2.2]pentane-1-carbonitrile], for which the IC50 stood at 0.6 nM. Compared with the last compound, the IC50 is about 5-fold lower.
Consider `CNc1nc(N2CC[C@H](C(F)F)C2)cc(-n2ncc3ccc(C4(C#N)CC45CC5)cc32)n1` (single isomer, unassigned) [Example 2.8-1], for which it took 0.7 nM to reach half-maximal inhibition (IC50).
In turn, `CNc1nc(N2CC[C@H](C(F)F)C2)cc(-n2ncc3ccc(C4(C#N)CC45CC5)cc32)n1` (single isomer, unassigned) [Example 2.8-2] registered an IC50 of 1.1 nM.
Regarding `C[C@H]1CN(c2cc(-n3ncc4ccc(C5(C#N)CC56CC6)cc43)ncn2)CCN1C1COC1` (single isomer, unassigned) [Example 3.1, (R or S)-1-(1-(6-((S)-3-methyl-4-(oxetan-3-yl)piperazin-1-yl)pyrimidin-4-yl)-1H-indazol-6-yl)spiro[2.2]pentane-1-carbonitrile], the IC50 came to 0.6 nM.
With `CC1C(C(C)(C)O)CCN1c1cc(-n2ncc3ccc([C@@]4(C#N)CC45CC5)cc32)ncn1` (single isomer, unassigned) [Example 3.5-1], the IC50 was determined as 123 nM.
The same measure for `CC1C(C(C)(C)O)CCN1c1cc(-n2ncc3ccc([C@]4(C#N)CC45CC5)cc32)ncn1` (single isomer, unassigned) [Example 3.5-2]: 31.6 nM.
The value for `CC1C(C(C)(C)O)CCN1c1cc(-n2ncc3ccc([C@@]4(C#N)CC45CC5)cc32)ncn1` (single isomer, unassigned) [Example 3.5-3] was 1.9 nM.
The value for `CC1C(C(C)(C)O)CCN1c1cc(-n2ncc3ccc([C@@]4(C#N)CC45CC5)cc32)ncn1` (single isomer, unassigned) [Example 3.5-4] was 0.6 nM; that for `CC1C(C(C)(C)O)CCN1c1cc(-n2ncc3ccc([C@@]4(C#N)CC45CC5)cc32)ncn1` (single isomer, unassigned) [Example 3.5-5] was 27.6 nM; that for `CC1C(C(C)(C)O)CCN1c1cc(-n2ncc3ccc([C@]4(C#N)CC45CC5)cc32)ncn1` (single isomer, unassigned) [Example 3.5-6] was 4.9 nM.
`CC1C(C(C)(C)O)CCN1c1cc(-n2ncc3ccc([C@@]4(C#N)CC45CC5)cc32)ncn1` (single isomer, unassigned) [Example 3.5-7] yielded an IC50 of 5.1 nM. The IC50 values of the last two compounds are within 1.5-fold of each other.
The same measure for `CC1C(C(C)(C)O)CCN1c1cc(-n2ncc3ccc([C@]4(C#N)CC45CC5)cc32)ncn1` (single isomer, unassigned) [Example 3.5-8]: 1.1 nM; for `CC1CN(c2cc(-n3ncc4ccc([C@@]5(C#N)CC56CC6)cc43)ncn2)CC1C(C)(C)O` (single isomer, unassigned) [Example 3.6-1]: 2.2 nM; for `CC1CN(c2cc(-n3ncc4ccc([C@]5(C#N)CC56CC6)cc43)ncn2)CC1C(C)(C)O` (single isomer, unassigned) [Example 3.6-2]: 0.6 nM.
The same measure for `CC1CN(c2cc(-n3ncc4ccc([C@@]5(C#N)CC56CC6)cc43)ncn2)CC1C(C)(C)O` (single isomer, unassigned) [Example 3.6-3]: 9.8 nM; for `CC1CN(c2cc(-n3ncc4ccc([C@]5(C#N)CC56CC6)cc43)ncn2)CC1C(C)(C)O` (single isomer, unassigned) [Example 3.6-4]: 2.1 nM.
Take `C[C@@H]1CN(c2cc(-n3ncc4ccc([C@@]5(C#N)CC56CC6)cc43)ncn2)CCN1C1CCOC1` (single isomer, unassigned) [Example 3.7-1]: the IC50 came to 8 nM.
The same measure for `C[C@@H]1CN(c2cc(-n3ncc4ccc([C@]5(C#N)CC56CC6)cc43)ncn2)CCN1C1CCOC1` (single isomer, unassigned) [Example 3.7-2]: 1.7 nM; for `C[C@@H]1CN(c2cc(-n3ncc4ccc([C@@]5(C#N)CC56CC6)cc43)ncn2)CCN1C1CCOC1` (single isomer, unassigned) [Example 3.7-3]: 9 nM.
The value for `C[C@@H]1CN(c2cc(-n3ncc4ccc([C@]5(C#N)CC56CC6)cc43)ncn2)CCN1C1CCOC1` (single isomer, unassigned) [Example 3.7-4] was 2 nM; that for `C[C@H]1CN(c2cc(-n3ncc4ccc([C@@]5(C#N)CC56CC6)cc43)ncn2)CCN1C1CCOC1` (single isomer, unassigned) [Example 3.8-1] was 1.6 nM.
The same measure for `C[C@H]1CN(c2cc(-n3ncc4ccc([C@@]5(C#N)CC56CC6)cc43)ncn2)CCN1C1CCOC1` (single isomer, unassigned) [Example 3.8-2]: 0.8 nM.
Compound `C[C@H]1CN(c2cc(-n3ncc4ccc([C@@]5(C#N)CC56CC6)cc43)ncn2)CCN1C1CCOC1` (single isomer, unassigned) [Example 3.8-3] showed an IC50 of 1.3 nM.
The same measure for `COC1(C(C)(C)O)CCN(c2cc(-n3ncc4ccc([C@@]5(C#N)CC56CC6)cc43)ncn2)C1` (single isomer, unassigned) [Example 3.10-1]: 15.1 nM; for `COC1(C(C)(C)O)CCN(c2cc(-n3ncc4ccc([C@]5(C#N)CC56CC6)cc43)ncn2)C1` (single isomer, unassigned) [Example 3.10-2]: 2.1 nM.
The same measure for `COC1(C(C)(C)O)CCN(c2cc(-n3ncc4ccc([C@@]5(C#N)CC56CC6)cc43)ncn2)C1` (single isomer, unassigned) [Example 3.10-3]: 3.1 nM.

Source of the values: patent US11161854B2, “Indazolyl-spiro[2.2]pentane-carbonitrile derivatives as LRRK2 inhibitors, pharmaceutical compositions, and uses thereof” (Merck Sharp & Dohme Corp., priority 2017, dated 2021).
